Molecular target: HPK1 (Homo sapiens (Human), UniProt Q92918)
Experiment: HPK1 Kinase Binding Assay
Method: A stock solution of 1 mM test compound was prepared in DMSO. The compound plate was prepared by 3-fold and 11-point serial dilutions. 0.1 μL of the compound in DMSO was transferred from the compound plate to the white 384 well polystyrene plates. The assay buffer contained 50 mM HEPES, pH 7.5, 0.01% Tween-20, 5 mM MgCl2, 0.01% BSA, and 5 mM DTT. 5 μl of 4 nM active HPK1 (SignalChem M23-11G) prepared in the buffer was added to the plate. The enzyme concentration given was based on the given stock concentration reported by the vender. 5 μl of 18 nM tracer 222 (ThermoFisher PV6121) and 4 nM LanthaScreen Eu-Anti GST antibody (ThermoFisher PV5595) were added. After one hour incubation at 25° C., the plates were read on a PHERAstar FS plate reader (BMG Labtech). Ki values were determined.

Sequence of HPK1 (Q92918 1-346): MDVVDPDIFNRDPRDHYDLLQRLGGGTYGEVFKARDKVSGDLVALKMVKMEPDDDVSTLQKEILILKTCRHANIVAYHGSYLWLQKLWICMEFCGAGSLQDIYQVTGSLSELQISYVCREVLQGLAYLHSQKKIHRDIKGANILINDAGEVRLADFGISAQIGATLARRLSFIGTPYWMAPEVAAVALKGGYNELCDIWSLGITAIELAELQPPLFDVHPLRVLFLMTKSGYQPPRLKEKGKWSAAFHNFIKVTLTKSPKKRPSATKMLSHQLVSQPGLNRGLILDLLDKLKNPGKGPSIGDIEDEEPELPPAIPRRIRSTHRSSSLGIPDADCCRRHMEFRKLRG

Row | Ki [nM] | SMILES
1 | ≤ 100 | COc1cccc(F)c1-c1cc2c(NC(=O)c3cccc(N4CCN(CC(F)(F)F)C(=O)C4)c3)n[nH]c2cn1 [Example 21, N-(5-(2-Fluoro-6-methoxyphenyl)-1H-pyrazolo[3,4-c]pyridin-3-yl)-3-(3-oxo-4-(2,2,2-trifluoroethyl)piperazin-1-yl)benzamide]
2 | ≤ 100 | COc1cccc(F)c1-c1cc2c(NC(=O)c3cccc(N4CCN(S(C)(=O)=O)CC4)c3)n[nH]c2cn1 [Example 22, N-(5-(2-Fluoro-6-methoxyphenyl)-1H-pyrazolo[3,4-c]pyridin-3-yl)-3-(4-(methylsulfonyl)piperazin-1-yl)benzamide]
3 | ≤ 100 | COc1cccc(F)c1-c1cc2c(NC(=O)c3cccc(N4CCNCC4)c3)n[nH]c2cn1 [Example 23, N-(5-(2-fluoro-6-methoxyphenyl)-1H-pyrazolo[3,4-c]pyridin-3-yl)-3-(piperazin-1-yl)benzamide]
4 | ≤ 100 | COc1cccc(F)c1-c1cc2c(NC(=O)c3ccc(N4CCOCC4)cc3)n[nH]c2cn1 [Example 24, N-(5-(2-Fluoro-6-methoxyphenyl)-1H-pyrazolo[3,4-c]pyridin-3-yl)-4-morpholinobenzamide]
5 | ≤ 100 | COc1cccc(F)c1-c1cc2c(NC(=O)c3ccc(N4CCNC(=O)C4)cc3)n[nH]c2cn1 [Example 25, N-(5-(2-Fluoro-6-methoxyphenyl)-1H-pyrazolo[3,4-c]pyridin-3-yl)-4-(3-oxopiperazin-1-yl)benzamide]
6 | ≤ 100 | COc1cccc(F)c1-c1cc2c(NC(=O)c3ccc(N4CCN(C)CC4)cc3)n[nH]c2cn1 [Example 26, N-(5-(2-Fluoro-6-methoxyphenyl)-1H-pyrazolo[3,4-c]pyridin-3-yl)-4-(4-methylpiperazin-1-yl)benzamide]
7 | ≤ 100 | COc1cccc(F)c1-c1cc2c(NC(=O)c3ccc(N4CCN(C)C(=O)C4)cc3)n[nH]c2cn1 [Example 27, N-(5-(2-fluoro-6-methoxyphenyl)-1H-pyrazolo[3,4-c]pyridin-3-yl)-4-(4-methyl-3-oxopiperazin-1-yl)benzamide]
8 | ≤ 100 | CCN1CCN(c2ccc(C(=O)Nc3n[nH]c4cnc(-c5c(F)cccc5OC)cc34)cc2)CC1 [Example 28, 4-(4-Ethylpiperazin-1-yl)-N-(5-(2-fluoro-6-methoxyphenyl)-1H-pyrazolo[3,4-c]pyridin-3-yl)benzamide]
9 | ≤ 100 | COc1cccc(F)c1-c1cc2c(NC(=O)c3ccc(N4CCN(CC(F)(F)F)C(=O)C4)cc3)n[nH]c2cn1 [Example 29, N-(5-(2-Fluoro-6-methoxyphenyl)-1H-pyrazolo[3,4-c]pyridin-3-yl)-4-(3-oxo-4-(2,2,2-trifluoroethyl)piperazin-1-yl)benzamide]
10 | ≤ 100 | COc1cccc(F)c1-c1cc2c(NC(=O)c3ccc(N4CCN(C(C)C)CC4)cc3)n[nH]c2cn1 [Example 30, N-(5-(2-Fluoro-6-methoxyphenyl)-1H-pyrazolo[3,4-c]pyridin-3-yl)-4-(4-isopropylpiperazin-1-yl)benzamide]
11 | ≤ 100 | COc1cccc(F)c1-c1cc2c(NC(=O)c3ccc(N4CCN(C5CC5)C(=O)C4)cc3)n[nH]c2cn1 [Example 31, 4-(4-Cyclopropyl-3-oxopiperazin-1-yl)-N-(5-(2-fluoro-6-methoxyphenyl)-1H-pyrazolo[3,4-c]pyridin-3-yl)benzamide]
12 | ≤ 100 | COc1cccc(F)c1-c1cc2c(NC(=O)c3ccc(N4CCN(S(C)(=O)=O)CC4)cc3)n[nH]c2cn1 [Example 32, N-(5-(2-Fluoro-6-methoxyphenyl)-1H-pyrazolo[3,4-c]pyridin-3-yl)-4-(4-(methylsulfonyl)piperazin-1-yl)benzamide]
13 | ≤ 100 | COc1cccc(F)c1-c1cc2c(NC(=O)c3ccc(N4CCNCC4)cc3)n[nH]c2cn1 [Example 33, N-(5-(2-Fluoro-6-methoxyphenyl)-1H-pyrazolo[3,4-c]pyridin-3-yl)-4-(piperazin-1-yl)benzamide]
14 | ≤ 100 | COc1cccc(F)c1-c1cc2c(-c3cnc(N4CCOCC4)s3)n[nH]c2cn1 [Example 34, 4-(5-(5-(2-Fluoro-6-methoxyphenyl)-1H-pyrazolo[3,4-c]pyridin-3-yl)thiazol-2-yl)morpholine]
15 | ≤ 100 | COc1cccc(F)c1-c1cc2c(-c3cc(C)no3)n[nH]c2cn1 [Example 35, 5-(5-(2-Fluoro-6-methoxyphenyl)-1H-pyrazolo[3,4-c]pyridin-3-yl)-3-methylisoxazole]
16 | ≤ 100 | COc1cccc(F)c1-c1cc2c(-c3cnc(C)s3)n[nH]c2cn1 [Example 36, 5-(5-(2-Fluoro-6-methoxyphenyl)-1H-pyrazolo[3,4-c]pyridin-3-yl)-2-methylthiazole]
17 | ≤ 100 | COc1cccc(F)c1-c1cc2c(N3CCN(c4ccc(Br)cc4)C(=O)C3)n[nH]c2cn1 [Example 37, 1-(4-Bromophenyl)-4-(5-(2-fluoro-6-methoxyphenyl)-1H-pyrazolo[3,4-c]pyridin-3-yl)piperazin-2-one]
18 | ≤ 100 | COc1cccc(F)c1-c1cc2c(N3CCc4ccc(C#N)cc4C3)n[nH]c2cn1 [Example 38, 2-(5-(2-Fluoro-6-methoxyphenyl)-1H-pyrazolo[3,4-c]pyridin-3-yl)-1,2,3,4-tetrahydroisoquinoline-7-carbonitrile]
19 | ≤ 100 | COc1cccc(F)c1-c1cc2c(N3CCN(c4ccc(C#N)cc4)CC3)n[nH]c2cn1 [Example 39, 4-(4-(5-(2-Fluoro-6-methoxyphenyl)-1H-pyrazolo[3,4-c]pyridin-3-yl)piperazin-1-yl)benzonitrile]
20 | ≤ 100 | COc1cccc(F)c1-c1cc2c(N3CCN(c4ccncc4)CC3)n[nH]c2cn1 [Example 40, 5-(2-Fluoro-6-methoxyphenyl)-3-(4-(pyridin-4-yl)piperazin-1-yl)-1H-pyrazolo[3,4-c]pyridine]
21 | 500 to 2000 | COc1cccc(F)c1-c1cc2c(NCc3ccc(N4CCN(C)CC4)cc3)n[nH]c2cn1 [Example 41, 5-(2-Fluoro-6-methoxyphenyl)-N-(4-(4-methylpiperazin-1-yl)benzyl)-1H-pyrazolo[3,4-c]pyridin-3-amine]
22 | ≤ 100 | CN1CCN(c2ccc(-c3n[nH]c4cnc(-c5cc(F)cc(C6(CN)CC6)c5)cc34)cc2)CC1 [Example 42, 1-[1-(3-Fluoro-5-{3-[4-(4-methylpiperazin-1-yl)phenyl]-1H-pyrazolo[3,4-c]pyridin-5-yl}phenyl)cyclopropyl]methanamine]
23 | ≤ 100 | COc1cccc(F)c1-c1cc2c(-c3ccc(N4CCN(C)CC4)cc3)n[nH]c2cn1 [Example 43, 5-(2-Fluoro-6-methoxyphenyl)-3-(4-(4-methylpiperazin-1-yl)phenyl)-1H-pyrazolo[3,4-c]pyridine]
24 | ≤ 100 | CN1CCN(c2ccc(-c3n[nH]c4cnc(-c5c(F)cccc5F)cc34)cc2)CC1 [Example 44, 5-(2,6-Difluorophenyl)-3-(4-(4-methylpiperazin-1-yl)phenyl)-1H-pyrazolo[3,4-c]pyridine]
25 | ≤ 100 | Cc1cccc(C)c1-c1cc2c(-c3ccc(N4CCN(C)CC4)cc3)n[nH]c2cn1 [Example 45, 5-(2,6-Dimethylphenyl)-3-(4-(4-methylpiperazin-1-yl)phenyl)-1H-pyrazolo[3,4-c]pyridine]
26 | ≤ 100 | CN1CCN(c2ccc(-c3n[nH]c4cnc(-c5c(F)cc(F)cc5F)cc34)cc2)CC1 [Example 46, 3-(4-(4-Methylpiperazin-1-yl)phenyl)-5-(2,4,6-trifluorophenyl)-1H-pyrazolo[3,4-c]pyridine]
